# Measurements reported in patent US20110039847A1, “AMIDE DERIVATIVES AS SIRTUIN MODULATORS” (Sirtris Pharmaceuticals, Inc, priority 2007, published 2011).
# Molecular target: T1, SIRT1 (Homo sapiens, UniProt Q96EB6)
# T1 sequence (Q96EB6 1-747): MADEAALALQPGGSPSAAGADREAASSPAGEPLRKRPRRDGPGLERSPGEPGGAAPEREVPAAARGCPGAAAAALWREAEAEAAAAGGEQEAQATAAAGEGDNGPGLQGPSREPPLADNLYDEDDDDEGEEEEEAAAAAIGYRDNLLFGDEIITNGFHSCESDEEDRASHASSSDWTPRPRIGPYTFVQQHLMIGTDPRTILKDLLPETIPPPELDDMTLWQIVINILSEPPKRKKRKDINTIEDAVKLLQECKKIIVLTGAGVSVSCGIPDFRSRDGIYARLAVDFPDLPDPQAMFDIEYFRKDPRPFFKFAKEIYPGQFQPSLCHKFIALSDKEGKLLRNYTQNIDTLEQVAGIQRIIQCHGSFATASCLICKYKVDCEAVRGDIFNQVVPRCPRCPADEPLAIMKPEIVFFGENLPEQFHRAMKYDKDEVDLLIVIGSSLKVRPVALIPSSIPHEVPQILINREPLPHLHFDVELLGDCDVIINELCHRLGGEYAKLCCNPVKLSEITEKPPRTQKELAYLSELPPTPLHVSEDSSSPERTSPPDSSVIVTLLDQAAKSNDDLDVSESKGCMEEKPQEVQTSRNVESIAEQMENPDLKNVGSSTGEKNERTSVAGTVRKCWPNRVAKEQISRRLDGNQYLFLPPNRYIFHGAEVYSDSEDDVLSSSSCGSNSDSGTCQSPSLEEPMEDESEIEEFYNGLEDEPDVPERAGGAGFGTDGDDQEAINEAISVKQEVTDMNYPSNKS
# Assay: Mass spectrometry based SIRT1 deacetylation (activation) assay
# Assay type: biochemical
# Settings: 0.5 μM peptide substrate, 120 μM βNAD+, 10 nM SIRT1, 25 min at 25° C.; for Emax: 25 min, read-out: % Fold Act. (percent maximum fold activation)
Structure (SMILES),EC1.5,Emax [%]
"CN(C)CCNc1cc(C(=O)Nc2ccccc2C(=O)Nc2cccc(S(C)(=O)=O)c2)nc(-c2ccccc2)n1 [Compound 154, 6-(2-(dimethylamino)ethylamino)-N-(2-(3-(methylsulfonyl)phenylcarbamoyl)phenyl)-2-phenylpyrimidine-4-carboxamide]",A (EC1.5≦1 uM),≥ 300
"CN(C)CCNc1cc(C(=O)Nc2ccccc2C(=O)Nc2cccnc2)nc(-c2ccccc2)n1 [Compound 155, 6-(2-(dimethylamino)ethylamino)-2-phenyl-N-(2-(pyridin-3-ylcarbamoyl)phenyl)pyrimidine-4-carboxamide]",A (EC1.5≦1 uM),≥ 300
"CN(C)CCNc1cc(C(=O)Nc2ccccc2C(=O)Nc2ccncc2)nc(-c2ccccc2)n1 [Compound 156, 6-(2-(dimethylamino)ethylamino)-2-phenyl-N-(2-(pyridin-4-ylcarbamoyl)phenyl)pyrimidine-4-carboxamide]",A (EC1.5≦1 uM),≥ 300
"CN(C)CCNc1cc(C(=O)Nc2ccccc2C(=O)Nc2ccc(C(N)=O)cc2)nc(-c2ccccc2)n1 [Compound 157, N-(2-(4-carbamoylphenylcarbamoyl)phenyl)-6-(2-(dimethylamino)ethylamino)-2-phenylpyrimidine-4-carboxamide]",A (EC1.5≦1 uM),150 to 300
"CN(C)CCNc1cc(C(=O)Nc2ccccc2C(=O)Nc2ccccn2)nc(-c2ccccc2)n1 [Compound 158, 6-(2-(dimethylamino)ethylamino)-2-phenyl-N-(2-(pyridin-2-ylcarbamoyl)phenyl)pyrimidine-4-carboxamide]",A (EC1.5≦1 uM),150 to 300
CCN(CCN(C)C)c1cc(C(=O)Nc2ccccc2Br)nc(-c2ccccc2)n1 [Compound 159],B (EC1.5>1 and ≦10 uM),150 to 300
"CCN(CCN(C)C)c1cc(C(=O)Nc2ccccc2C(=O)Nc2ccccc2C(N)=O)nc(-c2ccccc2)n1 [Compound 160, N-(2-(2-carbamoylphenylcarbamoyl)phenyl)-6-((2-(dimethylamino)ethyl)(ethyl)amino)-2-phenylpyrimidine-4-carboxamide]",A (EC1.5≦1 uM),≥ 300
"CN(C)CCNc1cc(C(=O)Nc2ccccc2C(=O)Nc2cc(Cl)ccc2Cl)nc(-c2ccccc2)n1 [Compound 161, N-(2-(2,5-dichlorophenylcarbamoyl)phenyl)-6-(2-(dimethylamino)ethylamino)-2-phenylpyrimidine-4-carboxamide]",B (EC1.5>1 and ≦10 uM),150 to 300
"CN(C)CCNc1cc(C(=O)Nc2ccccc2C(=O)Nc2c(Cl)cccc2Cl)nc(-c2ccccc2)n1 [Compound 162, N-(2-(2,6-dichlorophenylcarbamoyl)phenyl)-6-(2-(dimethylamino)ethylamino)-2-phenylpyrimidine-4-carboxamide]",A (EC1.5≦1 uM),≥ 300
"CN(C)CCNc1cc(C(=O)Nc2ccccc2C(=O)Nc2ccccc2S(C)(=O)=O)nc(-c2ccccc2)n1 [Compound 163, 6-(2-(dimethylamino)ethylamino)-N-(2-(2-(methylsulfonyl)phenylcarbamoyl)phenyl)-2-phenylpyrimidine-4-carboxamide]",B (EC1.5>1 and ≦10 uM),150 to 300
"CCN(CCN(C)C)c1cc(C(=O)Nc2ccccc2C(=O)NC2CCN(C(=O)OC(C)(C)C)CC2)nc(-c2ccccc2)n1 [Compound 166, tert-butyl 4-(2-(6-((2-(dimethylamino)ethyl)(ethyl)amino)-2-phenylpyrimidine-4-carboxamido)benzamido)piperidine-1-carboxylate]",B (EC1.5>1 and ≦10 uM),150 to 300
"CCN(CCN(C)C)c1cc(C(=O)Nc2ccccc2C(=O)NC2CCCN(C(=O)OC(C)(C)C)C2)nc(-c2ccccc2)n1 (stereo not drawn) [Compound 172, tert-butyl 3-(2-(6-((2-(dimethylamino)ethyl)(ethyl)amino)-2-phenylpyrimidine-4-carboxamido)benzamido)piperidine-1-carboxylate]",B (EC1.5>1 and ≦10 uM),150 to 300
"CCN(CCN(C)C)c1cc(C(=O)Nc2ccccc2C(=O)NC2CCN(C(=O)OC(C)(C)C)C2)nc(-c2ccccc2)n1 (stereo not drawn) [Compound 173, tert-butyl 3-(2-(6-((2-(dimethylamino)ethyl)(ethyl)amino)-2-phenylpyrimidine-4-carboxamido)benzamido)pyrrolidine-1-carboxylate]",B (EC1.5>1 and ≦10 uM),≥ 300

# Further lines, results first:
EC1.5,Emax [%],Structure (SMILES)
A (EC1.5≦1 uM),≥ 300,"CCN(CCN(C)C)c1cc(C(=O)Nc2ccccc2C(=O)NC2CCC2)nc(-c2ccccc2)n1 [Compound 164, N-(2-(cyclobutylcarbamoyl)phenyl)-6-((2-(dimethylamino)ethyl)(ethyl)amino)-2-phenylpyrimidine-4-carboxamide]"
A (EC1.5≦1 uM),150 to 300,"CCN(CCN(C)C)c1cc(C(=O)Nc2ccccc2C(=O)NC2CCCCC2)nc(-c2ccccc2)n1 [Compound 165, N-(2-(cyclohexylcarbamoyl)phenyl)-6-((2-(dimethylamino)ethyl)(ethyl)amino)-2-phenylpyrimidine-4-carboxamide]"
A (EC1.5≦1 uM),≥ 300,"CCN(CCN(C)C)c1cc(C(=O)Nc2ccccc2C(=O)NC2CCNCC2)nc(-c2ccccc2)n1 [Compound 167, 6-((2-(dimethylamino)ethyl)(ethyl)amino)-2-phenyl-N-(2-(piperidin-4-ylcarbamoyl)phenyl)pyrimidine-4-carboxamide]"
A (EC1.5≦1 uM),150 to 300,"CCN(CCN(C)C)c1cc(C(=O)Nc2ccccc2C(=O)NC2CC2)nc(-c2ccccc2)n1 [Compound 168, N-(2-(cyclopropylcarbamoyl)phenyl)-6-((2-(dimethylamino)ethyl)(ethyl)amino)-2-phenylpyrimidine-4-carboxamide]"
B (EC1.5>1 and ≦10 uM),≥ 300,"CCN(CCN(C)C)c1cc(C(=O)Nc2ccccc2C(=O)NC2CCCC2)nc(-c2ccccc2)n1 [Compound 169, N-(2-(cyclopentylcarbamoyl)phenyl)-6-((2-(dimethylamino)ethyl)(ethyl)amino)-2-phenylpyrimidine-4-carboxamide]"
A (EC1.5≦1 uM),≥ 300,"CCN(CCN(C)C)c1cc(C(=O)Nc2ccccc2C(=O)N[C@@H]2CCCC[C@@H]2O)nc(-c2ccccc2)n1 [Compound 170, 6-((2-(dimethylamino)ethyl)(ethyl)amino)-N-(2-((1R,2S)-2-hydroxycyclohexylcarbamoyl)phenyl)-2-phenylpyrimidine-4-carboxamide]"
A (EC1.5≦1 uM),≥ 300,"CCN(CCN(C)C)c1cc(C(=O)Nc2ccccc2C(=O)N[C@@H]2CCCC[C@H]2O)nc(-c2ccccc2)n1 [Compound 171, 6-((2-(dimethylamino)ethyl)(ethyl)amino)-N-(2-((1R,2R)-2-hydroxycyclohexylcarbamoyl)phenyl)-2-phenylpyrimidine-4-carboxamide]"
B (EC1.5>1 and ≦10 uM),≥ 300,"CCN(CCN(C)C)c1cc(C(=O)Nc2ccccc2C(=O)NC2CCCNC2)nc(-c2ccccc2)n1 (stereo not drawn) [Compound 174, 6-((2-(dimethylamino)ethyl)(ethyl)amino)-2-phenyl-N-(2-(piperidin-3-ylcarbamoyl)phenyl)pyrimidine-4-carboxamide]"
